Assays:
DU-145 = assay: Cytotoxicity against human DU-145 cells assessed as reduction in cell viability incubated for 24 hrs by SRB assay; type: functional, cell-based; settings: DU-145, 24 h
SK-N-SH = assay: Cytotoxicity against human SK-N-SH cells assessed as reduction in cell viability incubated for 24 hrs by SRB assay; type: functional, cell-based
MCF7 = assay: Cytotoxicity against human MCF7 cells assessed as reduction in cell viability incubated for 24 hrs by SRB assay; type: functional, cell-based; settings: MCF7, 24 h
MDA-MB-231 = assay: Cytotoxicity against human MDA-MB-231 cells assessed as reduction in cell viability incubated for 24 hrs by SRB assay; type: functional, cell-based; settings: MDA-MB-231, 24 h
HeLa = assay: Cytotoxicity against human HeLa cells assessed as reduction in cell viability incubated for 24 hrs by SRB assay; type: functional, cell-based
HCT-116 = assay: Cytotoxicity against human HCT-116 cells assessed as reduction in cell viability at 10 umol/L incubated for 24 hrs by LDH assay; type: functional; settings: HCT-116, 24 h, dose 10 µmol/L
[1] = Antitumor activity against human UCI 101 ovarian cells xenografted in BALB/c mouse assessed as survival of mouse at 8 mg/kg, ip qod followed by six doses at 5 mg/kg qod measured upto 180 days (reference value: 0 (50 days)); type: functional; settings: UCI101, ip, 4320 h, time 180 day

| Structure (SMILES) | IC50 (DU-145) | IC50 (SK-N-SH) | IC50 (MCF7) | IC50 (MDA-MB-231) | IC50 (HeLa) | inhibition at 10 µM (HCT-116) | survival at 8 mg/kg [1] |
| --- | --- | --- | --- | --- | --- | --- | --- |
| COc1cc(/C=C/C(=O)CC(=O)/C=C/c2ccc(OCCC[P+](c3ccccc3)(c3ccccc3)c3ccccc3)c(OC)c2)ccc1OCCC[P+](c1ccccc1)(c1ccccc1)c1ccccc1 | 5.1 µM | 5.12 µM | 2.31 µM | 5.1 µM | 4.46 µM |  |  |
| COc1cc(/C=C/C(=O)CC(=O)/C=C/c2ccc(OCCC[P+](c3ccccc3)(c3ccccc3)c3ccccc3)c(OC)c2)ccc1O | 8.62 µM | 8.19 µM | 5.31 µM | 8.33 µM | 7.69 µM |  |  |
| C[n+]1ccc(-c2cc[n+](CCCCCCCCCC[P+](c3ccccc3)(c3ccccc3)c3ccccc3)cc2)cc1 |  |  |  |  |  | > 50% |  |
| CN(C)c1ccc([P+](CCCCl)(c2ccc(N(C)C)cc2)c2ccc(N(C)C)cc2)cc1 |  |  |  |  |  |  | 37.5% |
| CN(C)c1ccc([P+](CCCI)(c2ccc(N(C)C)cc2)c2ccc(N(C)C)cc2)cc1 |  |  |  |  |  |  | 12.5% |

Reference: ChEMBL document CHEMBL4699405, “TPP-based mitocans: a potent strategy for anticancer drug design” (RSC Med Chem, 2020)
